Laboratory results: PubChem BioAssay AID330 (DTP/NCI, 2004)
Where “and” joins values, the source holds several entries; their conditions need not be identical. Equal entries are not always repeated. Inconclusive results and toxic doses are left out. How the source made its calls: active means survival T/C of 150% or more; inactive means T/C below 125% in these data.

Test system: P388 leukemia ip, CD2F1 mice, survival T/C
Test: NCI In Vivo Anticancer Drug Screen. Data for tumor model P388 Leukemia (intraperitoneal) in CD2F1 (CDF1) mice
Settings: endpoint: median survival time, higher = longer survival
Summary of the method: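 Mice carrying the transplanted tumor received test compound or vehicle. Survival was recorded in each group, and the value is the treated-group measurement divided by that of the vehicle-treated control group.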

[1] = dose: 100.0 mg/kg/injection, schedule: Q01DX001 (ip), vehicle: saline with Tween-80
[2] = dose: 200.0 mg/kg/injection, schedule: Q01DX001 (ip), vehicle: saline with Tween-80
[3] = dose: 400.0 mg/kg/injection, schedule: Q01DX001 (ip), vehicle: saline with Tween-80
[4] = dose: 100.0 mg/kg/injection, schedule: Q04DX003 (ip), vehicle: saline with Tween-80
[5] = dose: 200.0 mg/kg/injection, schedule: Q04DX003 (ip), vehicle: saline with Tween-80
[6] = dose: 400.0 mg/kg/injection, schedule: Q04DX003 (ip), vehicle: saline with Tween-80
[7] = dose: 50.0 mg/kg/injection, schedule: Q01DX009 (ip), vehicle: saline
[8] = dose: 100.0 mg/kg/injection, schedule: Q01DX009 (ip), vehicle: saline
[9] = dose: 60.0 mg/kg/injection, schedule: Q01DX005 (ip), vehicle: Klucel (hydroxypropylcellulose) (HPC)
[10] = dose: 120.0 mg/kg/injection, schedule: Q01DX005 (ip), vehicle: Klucel (hydroxypropylcellulose) (HPC)

Measured: T/C

Cc1nn(C(=S)S)c(C)c1N=Nc1cccc(Cl)c1Cl
inactive: [1] 91 % of control | [2] 94 % of control | [3] 108 % of control

CCOC(=O)c1cnc(SCc2ccccc2)[nH]c1=O
inactive: [4] 100 % of control | [5] 90 % of control | [6] 100 % of control

CCn1c(=O)c2c(ncn2C)n(C)c1=O
inactive: dose: 6.25 mg/kg/injection, schedule: Q01DX009 (ip), vehicle: saline 100 % of control | dose: 12.5 mg/kg/injection, schedule: Q01DX009 (ip), vehicle: saline 101 % of control | dose: 25.0 mg/kg/injection, schedule: Q01DX009 (ip), vehicle: saline 100 % of control | [7] 100 % of control

N#C/C=C/c1cccc([N+](=O)[O-])c1
inactive: [1] 100 % of control | [2] 100 % of control | [3] 100 % of control

[Na+]
inactive: [7] 95 % of control | [8] 100 % of control | dose: 200.0 mg/kg/injection, schedule: Q01DX009 (ip), vehicle: saline 98 % of control | dose: 0.5 % in 0.5 ml injection vol, schedule: Q01DX009 (ip), vehicle: water 105 % of control and 96 % of control | dose: 1.0 % in 0.5 ml injection vol, schedule: Q01DX009 (ip), vehicle: water 100 % of control and 96 % of control | dose: 2.0 % in 0.5 ml injection vol, schedule: Q01DX009 (ip), vehicle: water 102 % of control and 106 % of control | dose: 3.12 % in 0.5 ml injection vol, schedule: Q01DX009 (ip), vehicle: water 101 % of control and 92 % of control | dose: 4.0 % in 0.5 ml injection vol, schedule: Q01DX009 (ip), vehicle: water 100 % of control and 90 % of control | dose: 6.25 % in 0.5 ml injection vol, schedule: Q01DX009 (ip), vehicle: water 108 % of control and 114 % of control | dose: 8.0 % in 0.5 ml injection vol, schedule: Q01DX009 (ip), vehicle: water 99 % of control and 104 % of control and 108 % of control

Cn1cnc2cc(NCCCc3ccccc3)c([N+](=O)[O-])cc2c1=O
inactive: [4] 103 % of control | [5] 101 % of control | [6] 105 % of control

Cn1c(/C=[N+](/C)[O-])cnc1[N+](=O)[O-]
inactive: dose: 50.0 mg/kg/injection, schedule: Q01DX009 (ip), vehicle: suspension in saline 102 % of control | dose: 100.0 mg/kg/injection, schedule: Q01DX009 (ip), vehicle: suspension in saline 103 % of control | dose: 200.0 mg/kg/injection, schedule: Q01DX009 (ip), vehicle: suspension in saline 108 % of control

Cc1ccc(Nc2c3ccccc3nc3c2cnn3-c2ccccc2)cc1
inactive: [9] 91 % of control | [10] 90 % of control | dose: 240.0 mg/kg/injection, schedule: Q01DX005 (ip), vehicle: Klucel (hydroxypropylcellulose) (HPC) 87 % of control

CCOC(=O)NCCCCC([NH-])C(=O)O.CCOC(=O)NCCCCC([NH-])C(=O)O.[Cu+2] (centres undefined)
inactive: [7] 101 % of control | [8] 92 % of control

Cc1cc(NS(=O)(=O)c2ccc(N)cc2)no1
inactive: dose: 25.0 mg/kg/injection, schedule: Q01DX005 (ip), vehicle: saline 106 % of control | dose: 50.0 mg/kg/injection, schedule: Q01DX005 (ip), vehicle: saline 103 % of control | dose: 100.0 mg/kg/injection, schedule: Q01DX005 (ip), vehicle: saline 114 % of control | dose: 200.0 mg/kg/injection, schedule: Q01DX005 (ip), vehicle: saline 101 % of control | dose: 400.0 mg/kg/injection, schedule: Q01DX005 (ip), vehicle: saline 97 % of control

COC(=O)c1cc(=O)n(Cc2ccco2)c(=Nc2ccccc2)s1
inactive: dose: 50.0 mg/kg/injection, schedule: Q01DX005 (ip), vehicle: saline with Tween-80 98 % of control | dose: 100.0 mg/kg/injection, schedule: Q01DX005 (ip), vehicle: saline with Tween-80 97 % of control | dose: 200.0 mg/kg/injection, schedule: Q01DX005 (ip), vehicle: saline with Tween-80 94 % of control

O=C1CSC(c2c(F)cccc2Cl)N1c1ncccn1 (centres undefined)
inactive: [9] 109 % of control | [10] 111 % of control
